Assays:
Integrin α2β1 = molecular target: T1, Integrin α2β1 (Homo sapiens, UniProt P05556+P17301); assay: α2β1-mediated platelet adhesion assay on soluble collagen (human, in vitro); type: cell-based; details: washed platelets, with Mg2+
T1 construct: Washed platelets, suspended in the Tyrode's-HEPES buffer; endogenous in cells; host or cells: washed human platelets from healthy volunteers
Procedure: Fresh blood was drawn by venipuncture from consenting healthy human volunteers in citrate-phosphate-dextrose. Platelet-rich plasma (PRP) was obtained by centrifugation at 180 g for 20 minutes at room temperature (Beckman TJ6. USA). […] Platelets were then washed twice with Buffer (20 mMHEPES, 138 mM NaCl, 2.9 mMKCl, 1 mMMgCl2, 0.36 mMNaH2PO4, 1 mM EGTA, 4.77 mM trisodium citrate, and 2.35 mM citric acid, 5 mM glucose and Apyrase 1 U/ml, pH 6.5) containing 0.1% bovine serum albumin (BSA) and finally resuspended in the HEPES-buffered Tyrode solution (pH 7.4), to give a concentration of 2×10^8 cells/mL (Jandrot-Perrus M. Lagrue A H, Okuma M, and Boni C Adhesion and Activation of Human Platelets Induced by Convulxin Involve Glycoprotein VI and Integrin α2β1 J. Biol. Chem. 1997; 272: 27035-27041).
Integrin α2β1 binding on soluble collagen depends on the presence of Mg2+/Ca^2+ (Onley D. J., Knight C. G., Tuckwell D. S., Barnes M. J., and Farndale R. W. Micromolar Ca2+ concentrations are essential for Mg2+-dependent binding of collagen by the integrin α2β1 in human platelets. J. Biol. Chem, 2000; 275: 24560-24564.) while GPVI mediates adhesion over fibrillar collagen in absence of divalent ions (Nieswandt B., Brakebusch C, Bergmeier W, Schulte V, Bouvard D, Nejad R M, Lindhout T, Heemskerk J W M, Zirngibl H and Fassler R. Glycoprotein VI but not α2b1 integrin is essential for platelet interaction with collagen. The EMBO Journal, 2001; 20:2120-2130) and therefore the adhesion assays were performed in the presence or absence of these divalent cations. […]

rats = assay: FeCl3 induced carotid artery thrombosis in rats; type: in vivo; details: for time to occlude the carotid artery (TTO): compound 1 at the same dose as compound 6, aspirin at a very high dose
Procedure: Male SD rats were anesthetized by urethane (1.25 g/kg, i.p.). The carotid artery was carefully dissected and a pulsed Doppler Probe (DBF-120A-CPx, CBI-8000, Crystal Biotech, USA) was placed around it to record the blood flow velocity and patency of the blood vessels. The carotid artery thrombosis was induced by FeCl3 as follows: a square (1×1 mm) of Whatman Chromatography paper was immersed in 20% FeCl3 solution for 5 min and placed on the carotid artery as described earlier (Kurz K D, Main B W, Sandusky G E. Rat model of arterial thrombosis induced by ferric chloride. Thromb Res 1990; 60(4):269-80). Thrombosis was monitored as the reduction in carotid artery blood flow. The time at which the blood-flow velocity was decreased to zero was recorded as the total of occlusion (TTO) of the carotid artery. […] (Ferric Chloride induced thrombosis (FIG. 7))

hyperlipidemic hamsters = assay: Arterio-venous shunt model in hyperlipidemic hamsters; type: in vivo
[1] = test system: human platelet rich plasma (Convulxin, GP VI agonist); assay: Convulxin induced platelet aggregation, human platelet rich plasma (in vitro); type: cell-based; details: at 500 μM
Procedure: (§1) The reaction was allowed to proceed for at least 5 min, and the extent of aggregation was expressed in light-transmission units (Ivandic B T, Schlick P, Starltz P, Kurz K, Katas H A, Giannitsis E. Determination of clopidogrel resistance by whole blood platelet aggregometry and inhibitors of the P2Y12 receptor. Clinical Chemistry 2006: 52:383-88).
(§2) The percentage of aggregation was calculated by using following formula: Percent Aggregation=A/B×100 Where, A is the number of division traversed by the label on chart in the presence of Inducer & B is the total number of divisions (80). Platelet Aggregation Studies (FIG. 3) a) Platelet Aggregation (Human, In Vitro) (FIG. 3a (i) (ii) (iii))

[2] = test system: human platelet rich plasma (Ristocetin, GP 1b specific agonist); assay: Ristocetin induced platelet aggregation, human platelet rich plasma (in vitro); type: cell-based; details: 1.5 mg/ml Ristocetin
Procedure: as §1, §2

T1 sequence (P17301 30-1181): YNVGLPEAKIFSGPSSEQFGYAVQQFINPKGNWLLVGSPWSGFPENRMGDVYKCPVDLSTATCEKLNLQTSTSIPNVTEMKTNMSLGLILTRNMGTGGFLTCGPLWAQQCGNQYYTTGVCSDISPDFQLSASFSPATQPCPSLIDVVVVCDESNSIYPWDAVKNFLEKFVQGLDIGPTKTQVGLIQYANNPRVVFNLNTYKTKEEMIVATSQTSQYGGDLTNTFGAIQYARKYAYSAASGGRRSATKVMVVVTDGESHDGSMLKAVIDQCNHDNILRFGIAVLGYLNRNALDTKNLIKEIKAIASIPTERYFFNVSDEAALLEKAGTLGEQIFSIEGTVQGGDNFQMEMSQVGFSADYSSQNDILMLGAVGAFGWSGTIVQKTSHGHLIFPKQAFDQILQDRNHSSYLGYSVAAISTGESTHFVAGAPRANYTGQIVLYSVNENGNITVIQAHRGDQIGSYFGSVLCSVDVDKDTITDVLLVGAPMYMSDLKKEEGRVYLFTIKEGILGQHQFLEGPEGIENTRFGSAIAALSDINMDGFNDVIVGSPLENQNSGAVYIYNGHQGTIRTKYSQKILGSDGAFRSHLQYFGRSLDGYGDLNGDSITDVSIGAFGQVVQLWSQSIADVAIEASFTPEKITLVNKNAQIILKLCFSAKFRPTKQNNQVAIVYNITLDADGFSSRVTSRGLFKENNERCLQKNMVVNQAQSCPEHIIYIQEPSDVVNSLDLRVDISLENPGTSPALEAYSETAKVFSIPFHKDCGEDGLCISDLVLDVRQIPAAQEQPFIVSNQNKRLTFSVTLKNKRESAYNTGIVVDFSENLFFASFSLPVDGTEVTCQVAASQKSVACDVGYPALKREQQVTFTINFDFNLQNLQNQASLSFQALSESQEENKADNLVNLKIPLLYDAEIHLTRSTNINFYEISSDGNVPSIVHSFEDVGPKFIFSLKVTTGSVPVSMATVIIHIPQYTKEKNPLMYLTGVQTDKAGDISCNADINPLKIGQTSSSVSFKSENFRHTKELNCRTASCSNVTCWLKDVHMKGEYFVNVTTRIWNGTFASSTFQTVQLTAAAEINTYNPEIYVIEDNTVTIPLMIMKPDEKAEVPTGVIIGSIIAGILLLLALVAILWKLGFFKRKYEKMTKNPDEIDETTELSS
T1 sequence (P05556 21-798): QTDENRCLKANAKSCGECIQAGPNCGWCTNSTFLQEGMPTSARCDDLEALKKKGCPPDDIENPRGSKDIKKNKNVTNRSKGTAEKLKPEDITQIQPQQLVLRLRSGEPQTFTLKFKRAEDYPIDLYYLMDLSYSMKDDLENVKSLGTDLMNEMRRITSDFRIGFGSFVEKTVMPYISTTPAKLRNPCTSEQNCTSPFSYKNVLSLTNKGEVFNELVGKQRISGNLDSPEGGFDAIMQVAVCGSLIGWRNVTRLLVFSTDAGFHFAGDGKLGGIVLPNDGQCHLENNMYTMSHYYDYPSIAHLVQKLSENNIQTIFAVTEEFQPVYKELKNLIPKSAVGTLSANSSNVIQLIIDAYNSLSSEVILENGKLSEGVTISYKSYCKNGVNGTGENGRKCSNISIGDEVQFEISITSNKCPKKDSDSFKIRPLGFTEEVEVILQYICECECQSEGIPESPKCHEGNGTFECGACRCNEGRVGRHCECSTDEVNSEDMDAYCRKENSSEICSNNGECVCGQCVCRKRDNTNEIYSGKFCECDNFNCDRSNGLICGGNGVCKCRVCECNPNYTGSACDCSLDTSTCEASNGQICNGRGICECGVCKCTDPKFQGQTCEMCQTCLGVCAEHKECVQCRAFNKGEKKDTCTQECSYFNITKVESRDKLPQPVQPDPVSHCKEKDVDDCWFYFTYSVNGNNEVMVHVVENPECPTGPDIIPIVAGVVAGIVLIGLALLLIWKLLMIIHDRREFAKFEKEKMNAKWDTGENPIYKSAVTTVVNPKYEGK

SMILES	human platelet adhesion on soluble collagen (GP Ia IIa / α2β1 mediated) (Integrin α2β1)	time to occlude the carotid artery (TTO) (rats; rats)	Arterio-venous shunt model in hyperlipidemic hamsters (hyperlipidemic hamsters; Table 2 summary, Even at 10 μM)	thrombus weight (hyperlipidemic hamsters; hyperlipidemic hamsters, compound 6 at 10 μM/kg)	inhibition of convulxin induced platelet aggregation [1]	inhibition of Ristocetin induced platelet aggregation [2]	Ferric chloride induced thrombosis in rats (rats; Table 2 summary)	time to occlusion, dose dependence (rats; rats, 10, 30 & 100 μM/kg)
Cc1ccc(CN2C(=O)CC[C@H]2C(=O)N2CCCC(CNC(=O)OC(C)(C)C)C2)cc1 (stereo partly drawn) [Compound 1, 1-(4-methylphenylmethyl)-5-oxo-{N-[(3-t-butoxycarbonyl-aminomethyl)]-piperidin-1-yl}-pyrrolidine-2-carboxamides]	partially inhibited	failed to exhibit any protection	–	–	–	–	–	–
Cc1ccc(CN2C(=O)CC[C@H]2C(=O)N2CCC[C@@H](CNC(=O)OC(C)(C)C)C2)cc1 [Compound 6]	partially inhibited	significantly prolonged	Protective	significantly reduced the thrombus weight	does not significantly inhibit	not to exhibit any effect	Protective	dose dependently exhibited prolongation in time to occlusion
Cc1ccc(CN2C(=O)CC[C@H]2C(=O)N2CCC[C@H](CNC(=O)OC(C)(C)C)C2)cc1 [Compound 7, (2S)-1-(4-methylphenylmethyl)-5-oxo-(3R)-{N-[(3-t-butoxycarbonyl-aminomethyl)]-piperidin-1-yl}-pyrrolidine-2-carboxamide]	partially inhibited	–	–	–	–	not to exhibit any effect	–	–

Reference: patent publication US9687480B2, “Chiral 1-(4-methylphenylmethyl)-5-oxo-{N-[(3-t-butoxycarbonyl-aminomethyl)]-piperidin-1-yl)-pyrrolidine as inhibitors of collagen induced platelet activation and adhesion” (Council of Scientific & Industrial Research, priority 2011, dated 2017)
